Assay results: US7700788B2, “Hydroxymethyl furfural oxidation methods” (Battelle Memorial Institute, priority 2006, dated 2010)

Test: Solubility of FDCA in acetic acid/water mixtures
Type: physicochemical

O=C(O)c1ccc(C(=O)O)o1 [FDCA]
Solubility (0 Vol % HOAc / 100 Vol % H2O, 25° C.): 0.086 wt % | Solubility (0 Vol % HOAc / 100 Vol % H2O, 70° C.): 0.327 wt % | Solubility in 40/60 HOAc/H2O relative to pure water (40/60 HOAc/H2O versus pure water): about twice the solubility in pure water | Solubility (40 Vol % HOAc / 60 Vol % H2O, 25° C.): 0.153 wt % | Solubility (40 Vol % HOAc / 60 Vol % H2O, 70° C.): 0.779 wt % | Solubility (50 Vol % HOAc / 50 Vol % H2O, 25° C.): 0.173 wt % | Solubility (50 Vol % HOAc / 50 Vol % H2O, 70° C.): 0.746 wt % | Solubility (60 Vol % HOAc / 40 Vol % H2O, 25° C.): 0.171 wt % | Solubility (60 Vol % HOAc / 40 Vol % H2O, 70° C.): 0.596 wt % | Solubility (70 Vol % HOAc / 30 Vol % H2O, 25° C.): 0.143 wt % | Solubility (70 Vol % HOAc / 30 Vol % H2O, 70° C.): 0.592 wt % | Solubility (90 Vol % HOAc / 10 Vol % H2O, 25° C.): 0.138 wt % | Solubility (90 Vol % HOAc / 10 Vol % H2O, 70° C.): 0.458 wt % | Solubility (100 Vol % HOAc / 0 Vol % H2O, 25° C.): 0.080 wt % | Solubility (100 Vol % HOAc / 0 Vol % H2O, 70° C.): 0.193 wt %
